Results taken from patent publication US11446299B2, “Carbazole EHop-016 derivatives as anticancer and anti-migratory agents” (UNIVERSITY OF PUERTO RICO, priority 2017, dated 2022).
Read-outs that look alike come from different tables or passages of the source.

What was measured:
[1] = tested on: MDA-MB-231 breast cancer cells; assay: Wound healing assay (scratch method), cell migration; format: cell-based, human; conditions: for inhibition of migration in words: at a concentration of 0.2×IC50; for inhibition at 10 µM: read-out: anti-migratory activity (inhibition of migration)
Experimental: The experimental data of anti-migratory activities for compounds 3a-d and 4a-f were obtained using MDA-MB-231 breast cancer cells. For the migration assay, a wound-healing assay (scratch-wound assay) was utilized in the presence of vehicle (0.02% DMSO) or compounds at […].
Prior to assays, cells were grown until 80-90% confluence was observed. A 75 cm2 flask was used for 2.6×10^5 cells/mL in 10 mL and for a 25 cm2 flask 1.44×10^5 cells/mL in 5 mL. The cells were washed with PBS to remove all traces of FBS. 2 mL was added for a 25 cm2 flasks or 4 mL for a 75 cm2 flasks trypsin, and incubated 5-10 min at 37° C. At the end of the incubation time, cells were re-suspended and counted with hemocytometer using 1:2 dilutions with Trypan blue. Subsequently, cell viability was calculated. In a 12 multiwell plate, the plastic pattern was used to draw a fine space with a fine marker on the bottom of the plate. Cells were seeded at 1.5-2.2×10^5 cells/mL in 1 mL and incubated for 24 h. Cells were then rinsed with PBS and incubated in starving media (0.5% FBS) overnight. All controls and drugs were tested in triplicate. The negative control for each drug was prepared according to the drug's DMSO concentration.
Drugs were diluted and the final concentration at each well […]. The wound was made using a sterile pipette tip of […]. Cells were then rinsed very gently with media without FBS and media with negative controls was added. After a 24 h incubation, the gap distance was evaluated using the software Lumera Infinity Analyze 6.4.0. Pictures were taken at 0, 8, 12 and 24 h using a 10× objective. The percentage of migration was calculated using the following formula: 100−[(X0/X0)]*100 for time 0 h measurements 100−[(X24/X0)]*100 for time 24 h measurements
The experimental data of anti-migratory activities for compounds 3a-d and 4a-f were obtained using MDA-MB-231 breast cancer cells, and results are summarized in Table 1. For the migration assay, we used a wound-healing assay (scratch-wound assay)^22 in the presence of vehicle (0.02% DMSO) or compounds at 10 μM (FIG. 6). […] However, compounds 3a, 3c, and 4a-f inhibited migration in the range of 1-9%.
(§1) An additional example of a compounds with modification in building block C was synthesized via a different procedure as represented in Scheme 2B (see FIG. 11B). The compounds that were synthesized were tested for their biological activity by determination of their cytotoxicity in MDA-MB-231 breast cancer cell lines as shown in Table 5. The cytotoxicity's are expressed as IC50, which indicates the concentration at which 50% of the cell growth is inhibited. Furthermore, the inhibition of cell migration was tested at a concentration of 0.2×IC50, or, when the IC50 was >50 μM at a concentration of 10 μM. For comparison, Table 5 also includes the Lipinski and drug-likeness parameters as calculated via the MolSoft platform.
Migration assays were performed via the Scratch Method as described previously.

[2] = tested on: MDA-MB-231 breast cancer cell lines; assay: Cytotoxicity (IC50) of EHop-016 derivatives modified in building block C; format: cell-based; conditions: Homo sapiens, concentration at which 50% of the cell growth is inhibited
Experimental: as §1

MCF-7 cancer cells = assay: Sulforhodamine B (SRB) growth inhibition assay; format: cell-based; conditions: Homo sapiens, MCF7, 24 h treatment, mean of triplicate, SD <10%
Experimental: (§2) Various compounds were tested to evaluate the dose response curve for effect on MCF-7 cancer cells and MDA-MB-231 cancer cells. MCF-7 and MDA-MB-231 cells were cultured in 10% Minimum Essential Medium Eagle (MEME) supplemented with Earle's Balanced Salt Solution (EBSS), Non-essential Amino acids (NEAA), Sodium pyruvate, Pen/Strep, L-glutamine and Fetal Bovine Serum (FBS) at 37° C. in 5% CO2.
(§3) Sulforhodamine B (SRB) Assay: A stock solution of compounds was prepared at 50 mM in 100% DMSO. For cells preparation, a flask of 75 cm^2 or 25 cm^2 were used for 2.6×10^5 cells or 1.44×10^5 cells respectively with an 80-90% of confluence. Cells were washed with PBS and trypsinized. The concentration of cells was determined using a 1:2 dilutions with Trypan Blue and a hemocytometer. After cell count, the concentration was adjusted to have a 1.9×10^4 cells/well. Approximately […] of cells suspension, compounds, control positive and control negative were added in triplicates to a 96 well plate. Positive controls used were ellipticine, doxorubicin, and/or vincristine, and the negative control was DMSO 0.1%. All compounds at 50, 25, 12.5, 6.3, and 1.6 μM were incubated with cells at 37° C. for 24 hrs. For fixation, cold TCA 50% was used and incubated at 4° C. for 1 hr. Wells were washed and dried prior to tincture with 100 μL of SRB 0.4%. To remove excess of SRB, acetic acid was used. For analysis, TRIS-BASE Solution (pH=10.5) was used and shacked prior to reading using an ELISA reader at 510 nm and the software SoftMax Pro 4.8.
(§4) For each compound, 50% growth inhibition (GI50) was calculated from Sigmoidal dose-response curves (variable-slope) that were generated with data obtained from experiments carried out in triplicates (GI50 values were generated with GraphPad Prism V. 6.02, GraphPad Software, Inc.). The results are presented in FIGS. 4A-4B (MCF-7 cancer cells) and FIGS. 5A-5B (MDA-MB-231 cancer cells).

MDA-MB-231 cancer cells = assay: Sulforhodamine B (SRB) growth inhibition assay; format: cell-based, human; conditions: Homo sapiens, MDA-MB-231; SRB assay, 24 h treatment, mean of triplicate, SD <10%
Experimental: as §2, §3, §4

Rac1-Vav2 interaction = Rac1-Vav2 interaction (Homo sapiens, UniProt P63000); conditions: cited from earlier work
PAK1 = conditions: at 2 μM; cited from earlier work
Rac = Rac (Homo sapiens, UniProt P63000); conditions: cited from earlier work
Cdc42 = Cdc42 (Homo sapiens, UniProt P60953); conditions: cited from earlier work
tumor = conditions: at ≥25 mg/kg Body Weight, mouse model; cited from earlier work
[3] = mouse model; cited from earlier work
[4] = tested on: SH-SY5Y neuroblastoma cells; assay: Growth inhibition, log dose-response; format: cell-based; conditions: Homo sapiens
Text: FIG. 14 (A-B). Log dose-response curve for compound 8 in MCF-7 (FIG. 14A) and SH-SY5Y neuroblastoma (FIG. 14B) cells.

Chain of Cdc42 (P60953 whole entry, species assumed): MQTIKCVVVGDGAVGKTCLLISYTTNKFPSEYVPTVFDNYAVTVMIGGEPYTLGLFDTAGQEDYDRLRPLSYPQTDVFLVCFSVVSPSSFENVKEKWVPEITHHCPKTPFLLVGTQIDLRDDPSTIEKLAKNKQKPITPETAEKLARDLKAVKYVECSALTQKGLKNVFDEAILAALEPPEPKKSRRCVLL

With `CCn1c2ccccc2c2cc(Nc3ccnc(Nc4c(OC)cc(OC)cc4OC)n3)ccc21` [Compound 40, N^4-(9-ethyl-9H-carbazol-3-yl)-N^2-(2,4,6-trimethoxyphenyl) pyrimidine-2,4-diamine] the activity at 1.54 µM ([1]; Homo sapiens, MDA-MB-231, 24 h, at 1.54 μM (0.2×IC50)) was 80.2%, the “inhibition of migration in words” value [1] was “inhibition of migration” and the IC50 [2] was 7.7 µM.

`CCn1c2ccccc2c2cc(Nc3ccnc(NCCOC)n3)ccc21` [Compound 38, N^4-(9-ethyl-9H-carbazol-3-yl)-N^2-(2-methoxyethyl)pyrimidine-2,4-diamine] showed an activity at 2.8 µM ([1]; Homo sapiens, MDA-MB-231, 24 h, at 2.8 μM) of 96.7% and an IC50 [2] of over 50 µM.

In the case of `CCn1c2ccccc2c2cc(Nc3ccnc(NCc4ccc(OC)cc4OC)n3)ccc21` [Compound 39, N^2-(2,4-dimethoxybenzyl)-N^4-(9-ethyl-9H-carbazol-3-yl) pyrimidine-2,4-diamine], the activity at 0.92 µM ([1]; Homo sapiens, MDA-MB-231, 24 h, at 0.92 μM) is reported as 103% and the IC50 [2] is reported as over 50 µM.

Molecule `CCn1c2ccccc2c2cc(Nc3ccnc(NCC4CCCCN4)n3)ccc21` (centres unmarked) [Compound 34, N^4-(9-ethyl-9H-carbazol-3-yl)-N^2-(piperidin-2-ylmethyl)pyrimidine-2,4-diamine] has an activity at 0.39 µM ([1]; Homo sapiens, MDA-MB-231, 24 h, at 0.39 μM (0.2×IC50)) of 100% and an IC50 [2] of 1.97 µM.

With `CCn1c2ccccc2c2cc(Nc3ccnc(NCCCn4ccnc4)n3)ccc21` [Compound 33, N^2-(3-(1H-imidazol-1-yl)propyl)-N^4-(9-ethyl-9H-carbazol-3-yl)pyrimidine-2,4-diamine] the activity at 1.51 µM ([1]; Homo sapiens, MDA-MB-231, 24 h, at 1.51 μM (0.2×IC50)) was 100% and the IC50 [2] was 7.57 µM.

Work on `CCn1c2ccccc2c2cc(Nc3ccnc(NCCCN4CCOCC4)n3)ccc21` (racemic) [EHop-016] yielded a GI50 (MCF-7 cancer cells) of 14 µM, a GI50 (MDA-MB-231 cancer cells) of 15 µM and an activity at 1 µM ([1]; Homo sapiens, MDA-MB-231, 24 h) of 95.4%. The activity at 5 µM ([1]; Homo sapiens, MDA-MB-231, 24 h, at 5 μM) was 63.4%, the inhibition at 1 µM ([1]; Homo sapiens, MDA-MB-231, read-out: inhibition of migration, at 1.0 μM, scratch method) was 5% and the inhibition at 5 µM ([1]; Homo sapiens, MDA-MB-231, read-out: inhibition of migration, at 5.0 μM, scratch method) was 37%. For the same molecule, the inhibition at 10 µM ([1]; Homo sapiens, MDA-MB-231) was 33%, the inhibition at 10 µM ([1]; Homo sapiens, at 10 μM, 24 h, MDA-MB-231) was 33% and the activity at 10 µM ([1]; Homo sapiens, percent relative migration at 10 μM after 24 h, relative to control, MDA-MB-231) was 67 ± 7.55%. For the same molecule, the anti-migratory activity ([1]; at 5 pM as printed, MDA-MB-231) was 17%, the anti-migratory activity ([1]; at 5 μM, MDA-MB-231) was 17% and the IC50 [2] was 15.7 µM. The IC50 (Rac1-Vav2 interaction) was 1 µM, the inhibition of PAK1 (PAK1) was 60% and the “activity relative to previously available Rac inhibitors” value (Rac) was 10-100 times. The IC50 (Rac; metastatic breast cancer cells) was 1 µM, the “concentrations that inhibit Cdc42 activity” value (Cdc42) was at least 10 µM and the “tumor growth, metastasis and angiogenesis in words” value (tumor) was “significantly reduced tumor growth, metastasis, and angiogenesis”. For the same molecule, the clearance in words [3] was “cleared rapidly from the circulation”.

Work on `CCn1c2ccccc2c2cc(Nc3cc(C)nc(NCCCN4CCOCC4)n3)ccc21` [Compound 8, N^4-(9-Ethyl-9H-carbazol-3-yl)-6-methyl-N^2-(3-morpholin-4-yl-propyl)-pyrimidine-2,4-diamine] yielded a GI50 (MCF-7 cancer cells) of 9.5 µM and a GI50 [4] of 6 µM.

In the case of `CCn1c2ccccc2c2cc(Nc3ccnc(NC(=O)Nc4cc(Cl)c(OC)cc4OC)n3)ccc21` [Compound 41, 1-(5-chloro-2,4-dimethoxyphenyl)-3-(4-((9-ethyl-9H-carbazol-3-yl)amino)pyrimidin-2-yl)urea], the activity at 1 µM ([1]; Homo sapiens, MDA-MB-231, 24 h) is reported as 77.3%, the “inhibition of migration in words” value [1] is reported as “inhibition of migration” and the IC50 [2] is reported as 10.9 µM.

With `CCN(CC)CCCC(C)Nc1nccc(Nc2ccc3c(c2)c2ccccc2n3CC)n1` (centres unmarked) [Compound 32, N^2-(5-(diethylamino)pentan-2-yl)-N^4-(9-ethyl-9H-carbazol-3-yl)pyrimidine-2,4-diamine] the activity at 1.8 µM ([1]; Homo sapiens, MDA-MB-231, 24 h, at 1.8 μM (0.2×IC50)) was 99.9% and the IC50 [2] was 9 µM.

Molecule `CCn1c2ccccc2c2cc(Nc3ccnc(NCCO)n3)ccc21` [Compound 36, 2-((4-((9-ethyl-9H-carbazol-3-yl)amino)pyrimidin-2-yl)amino) ethanol] has an activity at 2.92 µM ([1]; Homo sapiens, MDA-MB-231, 24 h, at 2.92 μM (0.2×IC50)) of 94.8% and an IC50 [2] of 14.6 µM.

In the case of `CCn1c2ccccc2c2cc(Nc3ccnc(NCCC4CCCN4C)n3)ccc21` (centres unmarked) [Compound 35, N^4-(9-ethyl-9H-carbazol-3-yl)-N^2-(2-(1-methylpyrrolidin-2-yl)ethyl)pyrimidine-2,4-diamine], the activity at 3.8 µM ([1]; Homo sapiens, MDA-MB-231, 24 h, at 3.8 μM (0.2×IC50)) is reported as 89.1%, the “inhibition of migration in words” value [1] is reported as “inhibition of migration” and the IC50 [2] is reported as 19.1 µM.

With `CCn1c2ccccc2c2cc(Nc3ccnc(NCCOCCO)n3)ccc21` [Compound 37, 2-(2-((4-((9-ethyl-9H-carbazol-3-yl)amino)pyrimidin-2-yl)amino)ethoxy)ethanol] the activity at 3.07 µM ([1]; Homo sapiens, MDA-MB-231, 24 h, at 3.07 μM) was 100% and the IC50 [2] was over 50 µM.
